Results from PMC6320956, “O-Aminoalkyl-O-Trimethyl-2,3-Dehydrosilybins: Synthesis and In Vitro Effects Towards Prostate Cancer Cells” (Molecules, 2018).
Where two headings read alike, the source gives them in different places.

Legend:
LNCaP cells [1] = conditions: WST-1, three days of exposure; cited from earlier work
PC-3 cells [2] = conditions: WST-1, three days of exposure; cited from earlier work
DU145 cells [3] = conditions: WST-1, three days of exposure; cited from earlier work
LNCaP cells [4] = assay: WST-1 cell proliferation assay, LNCaP; format: cell-based, human; conditions: for IC50 (Silibinin)/IC50(Derivative) LNCaP: fold potency relative to silibinin; for IC50: WST-1, three days of exposure, mean ± SD, n = 3
Experimental: (§1) The in vitro antiproliferative activities of six 7-O-substituted and 26 3-O-substituted silybin derivatives were evaluated using the WST-1 cell proliferation assay, according to the procedure as described in the Experimental Section in both androgen-sensitive (LNCaP) and androgen-insensitive (PC-3 and DU145) human prostate cancer cell lines. Silibinin and docetaxel were used as a positive control for comparison in the parallel experiments and the IC50 values calculated from the dose-response curves are summarized in Table 1. […] A three-carbon linker in 11 and 29, as well as a five-carbon linker in 31, 37 and 40, are beneficial to the potency.
(§2) All cell lines were initially purchased from American Type Culture Collection (ATCC^TM) (Manassas, VA, USA). The PC-3 and LNCaP prostate cancer cell lines were routinely cultured in RPIM-1640 medium supplemented with 10% FBS and 1% penicillin/streptomycin. The DU145 prostate cancer cells were routinely cultured in Eagle’s Minimum Essential Medium (EMEM) supplemented with 10% FBS and 1% penicillin/streptomycin. Cultures were maintained in a high humidity environment supplemented with 5% carbon dioxide at a temperature of 37 °C.
(§3) PC-3, DU145, or LNCaP cells were plated in 96-well plates at a density of 3,200 per well in 200 µL of culture medium. The cells were then separately treated with silibinin, or synthesized silibinin derivatives, at five different doses for three days, while equal treatment volumes of DMSO (0.25%) were used as the vehicle control. The cells were cultured in a CO2 incubator at 37 °C for three days. A total of 10 µL of the premixed WST-1 cell proliferation reagent (Clontech) was added to each well. After mixing gently for one min on an orbital shaker, the cells were incubated for an additional 3 h at 37 °C. To ensure a homogeneous distribution of color, it is important to mix gently on an orbital shaker for one min. The absorbance of each well was measured using a microplate reader (Synergy HT, BioTek, Winooski, VT, USA) at a wavelength of 430 nm. […] For calculating the IC50 values, a linear proliferative inhibition was made based on at least five dosages for each compound.

DU145 cells [5] = assay: WST-1 cell proliferation assay, DU145; format: cell-based, human; conditions: for IC50 (Silibinin)/IC50(Derivative) DU145: fold potency relative to silibinin; for IC50: Homo sapiens, DU-145, 72 h, WST-1, three days of exposure, mean ± SD, n = 3
Experimental: as §1, §2, §3

PC-3 cells [6] = assay: WST-1 cell proliferation assay, PC-3; format: cell-based, human; conditions: for IC50 (Silibinin)/IC50(Derivative) PC-3: fold potency relative to silibinin; for IC50: WST-1, three days of exposure, mean ± SD, n = 3
Experimental: as §1, §2, §3

PC-3 cells [7] = assay: Cell cycle analysis by flow cytometry (propidium iodide); format: cell-based, human; conditions: 20 µM, 16 h; controls 55.7% (11), 36.2% (29), 33.1% (31, 37, 40)
Experimental: Silibinin can arrest the rat (H-7 and I-8) and human prostate cancer cell (LNCaP) cycle at the G1 phase, and cause G1 and G2-M PC-3 prostate cancer cell cycle arrest.
PC-3 cells were plated in 24-well plates at a density of 200,000 per well in 400 µL of culture medium. […] […] Both attached and floating cells were collected in a centrifuge tube by centrifugation at an rcf value of 450 g for 5 min. After discarding the supernatant, the collected cells were re-suspended with 500 µL 80% cold ethanol to fix them for 30 min in 4 °C. The fixed cells could be stored at −20 °C for one week. After fixation, the ethanol was removed after centrifuging and the cells were washed with PBS. The cells were then re-suspend with 100 μL of […] ribonuclease and were cultured at 37 °C for 30 min to degrade all RNA. The cells were stained with 200 μL of 50 μg/mLpropidium iodide stock solution for 30 min at […], and then the fluorescence intensity of PI was detected in individual PC-3 cells using an Attune flow cytometer (Life Technologies, Carlsbad, CA, USA) within 0.5 to 1 h after staining.

[8] = test system: PWR-1E non-neoplastic human prostate epithelial cells; assay: WST-1 cell proliferation assay, PWR-1E non-neoplastic cells; format: cell-based; conditions: for IC50: Homo sapiens, PWR-1E, 72 h, WST-1, three days of exposure, mean ± SD, n = 3
Experimental: (§4) Silibinin and five potent derivatives (11, 29, 31, 37, and 40) were selected for further evaluation against the MCF 10A non-neoplastic human mammary epithelial cell line and PWR-1E non-neoplastic human prostate epithelial cells.
as §3

[9] = test system: MCF 10A non-neoplastic human mammary epithelial cell line; assay: WST-1 cell proliferation assay, MCF 10A non-neoplastic cells; format: cell-based; conditions: for IC50: Homo sapiens, MCF-10A, 72 h, WST-1, three days of exposure, mean ± SD, n = 3
Experimental: as §4, §3

PC-3 cells [10] = assay: F2N12S and SYTOX AADvanced double staining apoptosis assay; format: cell-based, human; conditions: for early phase apoptosis in PC-3 cells: 5 µM; for early phase apoptosis in PC-3 cells / early apoptotic cells / late apoptotic/necrotic cells / maximum apoptotic cell population / apoptotic cell death: 16 h; for early phase apoptosis in PC-3 cells / early apoptotic cells / late apoptotic/necrotic cells: range over 11, 37, 40; for concentration at which the apoptotic cell population reached its maximum: PC-3, 16 h; for maximum apoptotic cell population: 50 µM; for apoptotic cell death: up to a 10 µM concentration
[11] = test system: prostate cancer cell lines (LNCaP, PC-3 and DU145); assay: WST-1 cell proliferation assay, three prostate cancer cell lines together; format: cell-based, human; conditions: range for the five optimal derivatives over PC-3, DU145, LNCaP; for IC50: Homo sapiens
Description: As part of our ongoing silybin project, this study aims to introduce a basic nitrogen-containing group to 7-OH of 3,5,20-O-trimethyl-2,3-dehydrosilybin or 3-OH of 5,7,20-O-trimethyl-2,3-dehydrosilybin via an appropriate linker for in vitro evaluation as potential anti-prostate cancer agents. The synthetic approaches to 7-O-substituted-3,5,20-O-trimethyl-2,3-dehydrosilybins through a five-step procedure and to 3-O-substituted-5,7,20-O-trimethyl-2,3- dehydrosilybins via a four-step transformation have been developed. Thirty-two nitrogen-containing derivatives of silybin have been achieved through these synthetic methods for the evaluation of their antiproliferative activities towards both androgen-sensitive (LNCaP) and androgen-insensitive prostate cancer cell lines (PC-3 and DU145) using the WST-1 cell proliferation assay. […] All these five optimal derivatives can arrest the PC-3 cell cycle in the G0/G1 phase and promote PC-3 cell apoptosis.
as §3
In summary, six 7-O-aminoalkyl-3,5-20-O-trimethyl-2,3-dehydrosilybins and 26 3-O-aminoalkyl-5,7,20-O-trimethyl-2,3-dehydrosilybins have been successfully synthesized through a five-step and four-step sequence, respectively. The synthetic methods can be used for the general synthesis of 7-O-substituted-3,5,20-O-trimethyl-2,3-dehydrosilybins and 3-O-substituted-5,7,20-O- trimethyl-2,3-dehydrosilybins. The antiproliferative activities of the 32 derivatives against three prostate cancer cell lines have been evaluated using the WST-1 cell proliferation assay. […] All these five optimal derivatives can cause PC-3 cell accumulation in a G0/G1 phase by increasing the cell population in this phase at 16 h. Derivatives 11, 37, and 40 show a stronger ability than derivatives 29 and 31 in activating PC-3 cell apoptosis by inducing appreciable levels of apoptotic cell death at a 5 µM concentration after 16 h of treatment.

Row | IC50 (Silibinin)/IC50(Derivative) LNCaP (LNCaP cells [4]) | IC50 (Silibinin)/IC50(Derivative) DU145 (DU145 cells [5]) | IC50 (Silibinin)/IC50(Derivative) PC-3 (PC-3 cells [6]) | IC50 (LNCaP cells [4]; Homo sapiens, LNCaP, 72 h) [nM] | IC50 (LNCaP cells [4]) [nM] | IC50 (DU145 cells [5]) [nM] | IC50 [11] [nM] | IC50 (PC-3 cells [6]; Homo sapiens, PC-3, 72 h) [nM] | IC50 (PC-3 cells [6]) [nM] | SMILES | PC-3 cell population in G0/G1 phase (PC-3 cells [7]) [%] | IC50 [8] [nM] | IC50 [9] [nM] | early phase apoptosis in PC-3 cells (PC-3 cells [10]) | early apoptotic cells (PC-3 cells [10]; 10 µM) | late apoptotic/necrotic cells (PC-3 cells [10]; 10 µM) | early apoptotic cells (PC-3 cells [10]; 20 µM) | late apoptotic/necrotic cells (PC-3 cells [10]; 20 µM) | concentration at which the apoptotic cell population reached its maximum (PC-3 cells [10]) [µM] | fold improvement in potency compared to silibinin [11] | also measured
1 | 14 | 8 | 8 |  |  |  |  |  |  | COc1cc(C2Oc3cc(-c4oc5cc(O)cc(O)c5c(=O)c4O)ccc3OC2CO)ccc1O (stereo not drawn) [Compound 2, 2,3-dehydrosilybin] |  |  |  |  |  |  |  |  |  |  | IC50 (LNCaP cells [1]): 3090 ± 1300 nM; IC50 (PC-3 cells [2]): 9450 ± 560 nM; IC50 (DU145 cells [3]): 11500 ± 1420 nM
2 | 17 | 12 | 22 |  |  |  |  |  |  | CCOc1cc(O)c2c(=O)c(O)c(-c3ccc4c(c3)OC(c3ccc(O)c(OC)c3)C(CO)O4)oc2c1 (stereo not drawn) [Compound 3, 7-O-ethyl-2,3-dehydrosilybin, reference compound] |  |  |  |  |  |  |  |  |  |  | IC50 (LNCaP cells [1]): 2580 ± 70 nM; IC50 (PC-3 cells [2]): 3250 ± 310 nM; IC50 (DU145 cells [3]): 7590 ± 660 nM
3 | 24 | 51 | 52 | ≤ 3000 | 1820 ± 140 | 1840 ± 140 | 1400 to 3060 |  |  | CCCN(CCC)CCCOc1cc(OC)c2c(=O)c(OC)c(-c3ccc4c(c3)OC(c3ccc(OC)c(OC)c3)C(CO)O4)oc2c1 (stereo not drawn) [Compound 11] | 66.3 | > 50000 | > 50000 | 26–59% | 56–76% | 6–40% | 54–75% | 16–44% | 5 | 17- to 52 fold | antiproliferative activity towards PWR-1E ([8]; up to a 50 µM concentration): does not demonstrate apparent antiproliferative activity; antiproliferative activity towards MCF 10A ([9]; up to a 50 µM concentration): does not demonstrate apparent antiproliferative activity
4 |  |  |  | ≤ 3000 | 2210 ± 170 | 2510 ± 40 | 1400 to 3060 | ≤ 3000 | 2730 ± 120 | CCCCN(CCCC)CCCOc1c(-c2ccc3c(c2)OC(c2ccc(OC)c(OC)c2)C(CO)O3)oc2cc(OC)cc(OC)c2c1=O (stereo not drawn) [Compound 29] | 50.3 | < 5000 | < 5000 |  |  |  |  |  |  | 17- to 52 fold | maximum apoptotic cell population (PC-3 cells [10]): 71%; apoptotic cell death (PC-3 cells [10]): less than 10%
5 |  |  |  | ≤ 3000 | 2510 ± 310 | 2850 ± 230 | 1400 to 3060 | ≤ 3000 | 2840 ± 100 | CCCCN(CCCC)CCCCCOc1c(-c2ccc3c(c2)OC(c2ccc(OC)c(OC)c2)C(CO)O3)oc2cc(OC)cc(OC)c2c1=O (stereo not drawn) [Compound 31] | 35.9 | < 5000 | < 5000 |  |  |  |  |  |  | 17- to 52 fold | maximum apoptotic cell population (PC-3 cells [10]): 95%; apoptotic cell death (PC-3 cells [10]): less than 10%
6 |  |  |  | ≤ 3000 | 1990 ± 230 | 2690 ± 30 | 1400 to 3060 | ≤ 3000 | 2710 ± 230 | COc1cc(OC)c2c(=O)c(OCCCCCN3CCCCC3)c(-c3ccc4c(c3)OC(c3ccc(OC)c(OC)c3)C(CO)O4)oc2c1 (stereo not drawn) [Compound 37] | 34.6 | < 5000 | < 5000 | 26–59% | 56–76% | 6–40% | 54–75% | 16–44% | 10 | 17- to 52 fold | 
7 |  |  |  | ≤ 3000 | 2230 ± 180 | 3060 ± 130 | 1400 to 3060 | ≤ 3000 | 2720 ± 80 | COc1cc(OC)c2c(=O)c(OCCCCCN3CCOCC3)c(-c3ccc4c(c3)OC(c3ccc(OC)c(OC)c3)C(CO)O4)oc2c1 (stereo not drawn) [Compound 40] | 43.4 | < 5000 | < 5000 | 26–59% | 56–76% | 6–40% | 54–75% | 16–44% | 30 | 17- to 52 fold | 
8 | 3 | 5 | 9 | 12800 ± 7800 |  | 18600 ± 7670 |  | 8450 ± 2890 |  | COc1cc(OC)c2c(=O)c(OCCCN3CCN(C)CC3)c(-c3ccc4c(c3)OC(c3ccc(OC)c(OC)c3)C(CO)O4)oc2c1 (stereo not drawn) [Compound 44] |  |  |  |  |  |  |  |  |  |  | 
9 | 8 | 11 | 15 | 5660 ± 440 |  | 8590 ± 2230 |  | 4720 ± 880 |  | COc1cc(OC)c2c(=O)c(OCCCCCN3CCN(C)CC3)c(-c3ccc4c(c3)OC(c3ccc(OC)c(OC)c3)C(CO)O4)oc2c1 (stereo not drawn) [Compound 45] |  |  |  |  |  |  |  |  |  |  | 
10 |  |  |  | 0.2 ± 0.1 |  | 1.2 ± 0.3 |  | 1.9 ± 0.6 |  | CC(=O)O[C@@]12CO[C@@H]1C[C@H](O)[C@@]1(C)C(=O)[C@H](O)C3=C(C)[C@@H](OC(=O)[C@H](O)[C@@H](NC(=O)OC(C)(C)C)c4ccccc4)C[C@@](O)([C@@H](OC(=O)c4ccccc4)[C@H]21)C3(C)C [Docetaxel, docetaxel, reference compound] |  |  |  |  |  |  |  |  |  |  | 
